Source: paper PMC5923171, “Novel Zinc-Attenuating Compounds as Potent Broad-Spectrum Antifungal Agents with In Vitro and In Vivo Efficacy” (Antimicrobial Agents and Chemotherapy, 2018)
≈ marks a conversion by molar mass, not a printed value. Like-named read-outs stand apart in the source and are kept apart here.

How the values were obtained:
C. albicans BWP17 = experiment: Zinbo-5 assay (intracellular zinc); type: cell-based, Candida albicans; settings: 9 μg/ml ZAC989, 7 μg/ml ZAC307 (25 μM), 15 μg/ml EDTA, 1.3 μg/ml TPEN; 1, 8 or 24 h
Method: C. albicans BWP17 was grown overnight in YPD medium at 30°C and 150 rpm. The cells were pelleted, washed in PBS buffer (D8537; Sigma) 3 times, and resuspended to an OD600 of 2.0. Two microliters of compound in DMSO was mixed with 100 μl of cell suspension and incubated statically for 1, 8, or 24 h at 30°C in a 96-well black plate. Thirty minutes before the end of the incubation period, 100 μl of 10 μM Zinbo-5 (sc-222425; Santa Cruz Biotechnology) in PBS buffer was added. […] The plate was then read on a plate reader (FLUOstar Optima; BMG Lab Technologies) with excitation at 355 nm and emission at 485 nm. The decrease in Zinbo-5 fluorescence was calculated relative to the untreated DMSO control.

[1] = Fluorescence-based competition assay using FluoZin-3 (compound-Zn2+ dissociation constant); type: binding; settings: FluoZin-3 competition, PBS pH 7.4, room temperature; read-out: Compound-Zn^2+ KD
Method: The dissociation constant (Kd) of zinc to zinc-attenuating compounds was determined at room temperature using FluoZin-3 (F24194; […] Testing buffer consisted of PBS (pH 7.4) with 200 nM ZnCl2 and 500 nM FluoZin-3. In a microtiter plate, 98 μl of testing buffer was mixed with 2 μl of compound at a range of concentrations to determine the half-maximal inhibitory concentration (IC50). Testing plates were incubated for 2 min before being read at an excitation wavelength of 485 nm and an emission wavelength of 516 nm with a Fluoroskan Ascent microplate fluorometer (Thermo Fisher Scientific).

C. albicans SC5314 = experiment: Antifungal susceptibility testing (MIC); type: cell-based, Candida albicans; settings: at least 50% growth inhibition, RPMI, 24 h, 34°C
Method: Antifungal susceptibility testing was carried out as described previously ([38], [39]), with a few modifications. Briefly, for each yeast or mold growth inhibition assay, frozen stocks of yeast cells or spores were diluted to a final concentration of 0.5 × 10^5 to 2.5 × 10^5 CFU/ml in sterile water. ZAC989, ZAC307, and ZAC623 were dissolved in DMSO to 10 mM stocks from which half-log serial dilutions were prepared. Growth assays were subsequently performed by pipetting 3 μl of compound dissolved in DMSO (giving a final concentration of 1.5% DMSO), 100 μl of cell-spore suspension, and 97 μl of 2× RPMI medium (20.8 g/liter of RPMI 1640 medium, 69.06 g/liter of morpholinepropanesulfonic acid [MOPS], 36 g/liter of glucose) into a microtiter plate that was incubated for 24 h (yeasts) or 48 to 72 h (molds) at 34°C. Fungal growth was determined spectrophotometrically by optical density reading of each well at a wavelength of 492 nm on a Victor X5 (Perkin-Elmer) plate reader. […] Standard errors between repeated experiments were generally below 5%. The growth effect of exogenous addition of various divalent metals was evaluated by performing the antifungal susceptibility assay in the presence of 5 μM ZAC989 or ZAC307 and with increasing concentrations (0.003 to 50 μM) of ZnSO4, CuSO4, (NH4)2Fe(SO4)2, MgCl2, and CaCl2.

ZafA target genes = experiment: RT-qPCR of ZafA target genes and genes not regulated by ZafA; type: cell-based, Aspergillus fumigatus; settings: zinc-limiting conditions, 2 h; for expression of the ZafA target genes: 21 μg/ml ZAC307, 27 μg/ml ZAC989, 146 μg/ml EDTA, 10.6 μg/ml TPEN; for expression levels of the genes not regulated by ZafA: 21 μg/ml ZAC307, 27 μg/ml ZAC989
Method: A total of 1.5 × 10^6 conidia of the wild-type strain (AF14) were inoculated into 20 ml of 0.7× sRPMI, 0.05% Tween 20, and 1.2% ethanol dispensed into 100-ml culture flasks pretreated with an overnight wash in 2 mM EDTA (pH 8.0) to minimize the presence of metal traces, followed by a thorough washing with ultrapure Milli-Q water. The flasks were subsequently sterilized in an oven at 180°C. The cultures were incubated for 20 h at 37°C and 200 rpm before the following were added: (i) pure ethanol to a final concentration of 1.2% (vol/vol) (as a reference for the transcription profiles of all genes under zinc-limiting conditions), (ii) 1.2% ethanol plus a solution of ZnSO4 to a final concentration 20 μM zinc (as a reference for the transcription profiles of all genes under zinc-replete conditions following the zinc shift), (iii) 1.2% ethanol plus a solution of EDTA to a final concentration of 500 μM, (iv) 1.2% ethanol plus a solution of TPEN to a final concentration of 10.6 μg/ml, and (v) a 5 mM solution of each test compound (ZAC307 or ZAC989) dissolved in 80% ethanol to a final concentration of 75 μM and 1.2% ethanol (which correspond to 21 μg/ml and 27 μg/ml, respectively). After compound addition, cultures were incubated for 2 h at 37°C and 200 rpm and mycelia were harvested by filtration through filter paper, washed twice with sterile waterm and snap-frozen in liquid nitrogen. After grinding of the mycelia in the presence of liquid nitrogen, total RNA was extracted using an RNeasy plant minikit (74904; Qiagen) according to the manufacturer's instructions. RNA was eluted in 50 μl of RNase-free water. RNA integrity was verified on 0.8% agarose gels stained with ethidium bromide. RNA was stored at −80°C until use.
Total RNA concentration and quality were determined by UV spectrometry (NanoDrop ND1000 spectrophotometer; Thermo Fisher Scientific), and all samples were brought to a final concentration of 150 ng/μl. Total RNA (1.5 μg) was treated with RQ1 DNase I (M610; Promega) and subsequently assessed by conventional PCR for the complete absence of genomic DNA (gDNA). Subsequently, 1 μg of DNase-treated RNA was reversed transcribed using SuperScript II reverse transcriptase (18064-014; Invitrogen, Thermo Fisher Scientific), with random hexamers (11034731001; Roche Diagnostics) as primers. Prior to qPCRs, cDNA samples were diluted 1:3 in water, except in the case of reactions against the 18S rRNA, for which samples were diluted 1:1,200 in water. qPCRs were performed on a Bio-Rad CFX96 instrument. A typical qPCR mixture (10 μl) contained 13.5 ng of cDNA (32 pg when the qPCR was for 18S rRNA), a specific pair of primers (150 nM final concentration), and the SYBR premix Ex Taq (RR420A; TaKaRa). For all qPCRs, 40 cycles were performed using the following cycling conditions: denaturation at 95°C for 10 s, annealing at 59°C for 20 s, and extension at 72°C for 20 s. The relative expression ratio (rER) was calculated using the threshold cycle (2^−ΔΔCT) method ([42]) using the expression level of the 18S rRNA as an internal reference.

C. albicans = experiment: Fungal growth recovery after prolonged exposure (MFC); type: cell-based, Candida albicans; settings: for growth recovery after exposure: 5 days of exposure, then compound-free medium (EDTA: during compound incubation, 0.22 to 22 μg/ml)
[2] = Candida albicans, SC5314, 24 h, read-out: MIC

SMILES | Zinbo-5 fluorescence (C. albicans BWP17) | Kd [1] [nM] | MIC (C. albicans SC5314; [2]) [µg/mL] | expression of the ZafA target genes (ZafA target genes) | growth recovery after exposure (C. albicans) | MIC (C. albicans SC5314) [µg/mL] | expression levels of the genes not regulated by ZafA (ZafA target genes) | concentration above which exposed cells showed poor recovery (C. albicans; prolonged exposure)
O=C(O)CN(CCN(CC(=O)O)CC(=O)O)CC(=O)O [EDTA] | did not reduce the Zinbo-5 fluorescence | < 10 | ~0.05 (≈ 0.171 µM) | upregulation of the most direct ZafA target genes | resumed visible growth after 48 h of compound incubation |  |  | 
Cc1cc(O)n(-c2cc(N3CC[C@H](Oc4cnccc4C#N)C3)ncn2)n1 [ZAC989, 3-[(3S)-1-[6-(5-hydroxy-3-methyl-pyrazol-1-yl)pyrimidin-4-yl]pyrrolidin-3-yl]oxy-pyridine-4-carbonitrile] | time-dependent decrease in Zinbo-5 fluorescence | 13 | 0.4 (≈ 1.1 µM) | inhibited the expression of the ZafA target genes | resume normal growth | 0.6 (≈ 1.65 µM) | did not have a noticeable effect | 
CN(C)c1cc(-n2nc(-c3ccccc3)cc2O)ncn1 [ZAC307, 2-[6-(dimethylamino)pyrimidin-4-yl]-5-phenyl-pyrazol-3-ol] | decreased the Zinbo-5 fluorescence after only 1 h of incubation | 71 | 0.4 (≈ 1.42 µM) | inhibited the expression of the ZafA target genes | resume normal growth |  | reduced expression levels for most of the investigated genes that were not regulated by ZafA | 
c1ccc(CN(CCN(Cc2ccccn2)Cc2ccccn2)Cc2ccccn2)nc1 [TPEN, N,N,N’,N’-tetrakis(2-pyridylmethyl)-ethylenediamine] | time-dependent decrease in Zinbo-5 fluorescence | < 10 | ~0.05 (≈ 0.118 µM) | higher expression of the ZafA target genes than attained with EDTA | poor recovery |  |  | above 2 μg/ml
